Test results: patent US20080194574A1, “Pyrazine Derivatives As Effective Compounds Against Infectious Diseases” (AXXIMA PHARMACEUTICALS AG, priority 2003, published 2008)

Biological target: T1, viral kinase pUL-97 (Human cytomegalovirus, UniProt P16788)
T1 construct: The pUL-97 gene was cloned into a baculovirus vector; GST (glutathione S-transferase) (N); made in house; host or cells: Sf9 insect cells, baculovirus
Assay: UL97 kinase assay on Immobilon plate
Format: biochemical
Settings: inhibition of UL 97 kinase activity; class by IC50 / % inhibition at 10 μM or 100 μM; read-out: Activity Class [A, B, C]
Summary of the method: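 GST-pUL97 from baculovirus-infected Sf9 cells phosphorylated myelin basic protein with ATP (3 μM in the added assay buffer) and γ-[33P]ATP in Tris-HCl pH 7.5 buffer with MnCl2 and DTT. Reaction ran 1 h at 30 °C with graded compound concentrations and was stopped with EDTA. 33P incorporation was measured by scintillation after filter capture and phosphoric acid washes.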

T1 sequence (P16788 whole entry): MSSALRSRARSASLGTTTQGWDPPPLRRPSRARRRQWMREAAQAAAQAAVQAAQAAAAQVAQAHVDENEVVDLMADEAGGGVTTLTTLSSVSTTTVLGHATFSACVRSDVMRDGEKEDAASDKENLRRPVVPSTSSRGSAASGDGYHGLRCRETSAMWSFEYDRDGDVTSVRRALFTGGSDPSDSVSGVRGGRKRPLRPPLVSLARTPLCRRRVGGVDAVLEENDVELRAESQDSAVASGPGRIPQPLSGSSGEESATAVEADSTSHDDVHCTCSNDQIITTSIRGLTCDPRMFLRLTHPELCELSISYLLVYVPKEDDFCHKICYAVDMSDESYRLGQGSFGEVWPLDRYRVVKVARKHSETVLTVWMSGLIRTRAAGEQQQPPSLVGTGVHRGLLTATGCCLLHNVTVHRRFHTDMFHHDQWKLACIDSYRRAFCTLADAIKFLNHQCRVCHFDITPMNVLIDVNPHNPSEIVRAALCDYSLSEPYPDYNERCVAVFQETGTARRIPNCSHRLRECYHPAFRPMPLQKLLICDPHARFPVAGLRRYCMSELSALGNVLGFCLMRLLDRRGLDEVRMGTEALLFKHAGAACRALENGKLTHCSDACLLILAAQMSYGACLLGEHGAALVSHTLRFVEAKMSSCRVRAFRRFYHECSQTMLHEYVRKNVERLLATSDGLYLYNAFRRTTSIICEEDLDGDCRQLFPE

SMILES | IC50 [µM]
Cc1ccc(-c2cncc(N3CCN(c4cnccn4)CC3)n2)cc1 [compound 330, 6-p-Tolyl-2′,3′,5′,6′-tetrahydro-[2,1′;4′,2″]terpyrazine] | 1 to 10
FC(F)(F)c1ccc(-c2cncc(N3CCN(c4cnccn4)CC3)n2)cc1 [compound 345, 6-(4-Trifluoromethyl-phenyl)-2′,3′,5′,6′-tetrahydro-[2,1′;4′,2″]terpyrazine] | 1 to 10
Cc1ccc(N2CCN(c3cncc(-c4cccc5ccccc45)n3)CC2)cc1 [compound 230, 6′-Naphthalen-1-yl-4-p-tolyl-3,4,5,6-tetrahydro-2H-[1,2′]bipyrazinyl] | 10 to 100
COc1cccc(N2CCN(c3cncc(-c4ccccc4)n3)CC2)c1 [compound 365, 4-(3-Methoxy-phenyl)-6′-phenyl-3,4,5,6-tetrahydro-2H-[1,2′]bipyrazinyl] | 10 to 100
COc1ccc(-c2cncc(N3CCC(c4ccccc4)CC3)n2)cc1F [compound 278, 2-(3-Fluoro-4-methoxy-phenyl)-6-(4-phenyl-piperidin-1-yl)-pyrazine] | 10 to 100
Cc1ccc(-c2cncc(N3CCN(c4ccccc4F)CC3)n2)cc1 [compound 248, 4-(2-Fluoro-phenyl)-6′-p-tolyl-3,4,5,6-tetrahydro-2H-[1,2′]bipyrazinyl] | 10 to 100
COc1ccc(OC)c(-c2cncc(N3CCN(c4ccc(F)cc4)CC3)n2)c1 [compound 234, 6′-(2,5-Dimethoxy-phenyl)-4-(4-fluoro-phenyl)-3,4,5,6-tetrahydro-2H-[1,2′]bipyrazinyl] | 10 to 100
COc1ccc(-c2cncc(N3CCN(c4ccc(Cl)c(Cl)c4)CC3)n2)cc1OC [compound 371, 4-(3,4-Dichloro-phenyl)-6′-(3,4-dimethoxy-phenyl)-3,4,5,6-tetrahydro-2H-[1,2′]bipyrazinyl] | 10 to 100
Fc1ccc(-c2cncc(N3CCN(c4ccccn4)CC3)n2)cc1 [compound 305, 6′-(4-Fluoro-phenyl)-4-pyridin-2-yl-3,4,5,6-tetrahydro-2H-[1,2′]bipyrazinyl] | 1 to 10
Cc1cccc(N2CCN(c3cncc(-c4ccoc4)n3)CC2)c1C [compound 346, 4-(2,3-Dimethyl-phenyl)-6′-furan-3-yl-3,4,5,6-tetrahydro-2H-[1,2′]bipyrazinyl] | 10 to 100
Cc1ccc(-c2cncc(N3CCN(c4ccc(C)cc4)CC3)n2)cc1 [compound 229, 4,6′-Di-p-tolyl-3,4,5,6-tetrahydro-2H-[1,2′]bipyrazinyl] | 10 to 100
Fc1ccc(N2CCN(c3cncc(-c4ccc(C(F)(F)F)cc4)n3)CC2)c(F)c1 [compound 210, 4-(2,4-Difluoro-phenyl)-6′-(4-trifluoromethyl-phenyl)-3,4,5,6-tetrahydro-2H-[1,2′]bipyrazinyl] | 1 to 10
COc1ccc2cc(-c3cncc(N4CCN(c5ccc(C(C)=O)cc5)CC4)n3)ccc2c1 [compound 213, 1-{4-[6′-(6-Methoxy-naphthalen-2-yl)-2,3,5,6-tetrahydro-[1,2′]bipyrazinyl-4-yl]-phenyl}-ethanone] | 1 to 10
CCOc1ccc(-c2cncc(N3CCN(c4ccc(C(C)=O)cc4)CC3)n2)cc1 [compound 207, 1-{4-[6′-(4-Ethoxy-phenyl)-2,3,5,6-tetrahydro-[1,2′]bipyrazinyl-4-yl]-phenyl}-ethanone] | 10 to 100
COc1ccc(N2CCN(c3cncc(-c4csc5ccccc45)n3)CC2)cc1OC [compound 227, 6′-Benzo[b]thiophen-3-yl-4-(3,4-dimethoxy-phenyl)-3,4,5,6-tetrahydro-2H-[1,2′]bipyrazinyl] | 1 to 10
Fc1ccccc1N1CCN(c2cncc(-c3cccc4ccccc34)n2)CC1 [compound 249, 4-(2-Fluoro-phenyl)-6′-naphthalen-1-yl-3,4,5,6-tetrahydro-2H-[1,2′]bipyrazinyl] | 10 to 100
Fc1ccc(N2CCN(c3cncc(-c4ccc5ccccc5c4)n3)CC2)cc1 [compound 267, 4-(4-Fluoro-phenyl)-6′-naphthalen-2-yl-3,4,5,6-tetrahydro-2H-[1,2′]bipyrazinyl] | < 1
COc1cccc(-c2cncc(N3CCN(c4cccc(OC)c4)CC3)n2)c1 [compound 366, 4,6′-Bis-(3-methoxy-phenyl)-3,4,5,6-tetrahydro-2H-[1,2′]bipyrazinyl] | 1 to 10
Cc1ccc(-c2cncc(N3CCN(c4cccc(Cl)c4)CC3)n2)cc1 [compound 237, 4-(3-Chloro-phenyl)-6′-p-tolyl-3,4,5,6-tetrahydro-2H-[1,2′]bipyrazinyl] | 10 to 100
OCc1ccccc1-c1cncc(N2CCN(c3ccc(F)cc3F)CC2)n1 [compound 202, {2-[4-(2,4-Difluoro-phenyl)-3,4,5,6-tetrahydro-2H-[1,2′]bipyrazinyl-6′-yl]-phenyl}-methanol] | 10 to 100
Fc1ccc(-c2cncc(N3CCN(c4ccc(Cl)c(Cl)c4)CC3)n2)cc1 [compound 370] | 10 to 100
Cc1cc(C)cc(-c2cncc(N3CCN(c4cnccn4)CC3)n2)c1 [compound 344, 6-(3,5-Dimethyl-phenyl)-2′,3′,5′,6′-tetrahydro-[2,1′;4′,2″]terpyrazine] | 10 to 100

Same assay, conditions: inhibition of UL 97 kinase activity; class by IC50 / % inhibition at 10 or 100 μM; read-out: Activity Class [A, B, C]

SMILES | IC50 [µM]
Cc1cc(C)cc(-c2cncc(N3CCN(c4ccncc4)CC3)n2)c1 [compound 165, 6′-(3,5-Dimethyl-phenyl)-4-pyridin-4-yl-3,4,5,6-tetrahydro-2H-[1,2′]bipyrazinyl] | 1 to 10
c1coc(CNc2cncc(-c3cc4ccccc4o3)n2)c1 [compound 23, (6-Benzofuran-2-yl-pyrazin-2-yl)-furan-2-ylmethyl-amine] | 10 to 100
COc1ccc(N2CCN(c3cncc(-c4cccs4)n3)CC2)cc1OC [compound 44, 4-(3,4-Dimethoxy-phenyl)-6′-thiophen-2-yl-3,4,5,6-tetrahydro-2H-[1,2′]bipyrazinyl] | 1 to 10
NCc1ccc(-c2cncc(N3CCN(C(=O)c4ccco4)CC3)n2)cc1 [compound 59, [6′-(4-Aminomethyl-phenyl)-2,3,5,6-tetrahydro-[1,2′]bipyrazinyl-4-yl]-furan-2-yl-methanone] | 10 to 100
COc1ccc(N2CCN(c3cncc(-c4ccc(Oc5ccccc5)cc4)n3)CC2)cc1OC [compound 168, 4-(3,4-Dimethoxy-phenyl)-6′-(4-phenoxy-phenyl)-3,4,5-6-tetrahydro-2H-[1,2′]bipyrazinyl] | 10 to 100
Fc1cc(-c2cncc(N3CCN(c4ccccc4F)CC3)n2)ccc1-c1ccccc1 [compound 128, 6′-(2-Fluoro-biphenyl-4-yl)-4-(2-fluoro-phenyl)-3,4,5,6-tetrahydro-2H-[1,2′]bipyrazinyl] | 10 to 100
COc1ccc(N2CCN(c3cncc(-c4cccc(C#N)c4)n3)CC2)cc1OC [compound 173, 3-[4-(3,4-Dimethoxy-phenyl)-3,4,5,6-tetrahydro-2H-[1,2′]bipyrazinyl-6′-yl]-benzonitrile] | 10 to 100
CCOc1ccc(-c2cncc(N3CCN(c4ccccc4OC)CC3)n2)cc1 [compound 92, 6′-(4-Ethoxy-phenyl)-4-(2-methoxy-phenyl)-3,4,5,6-tetrahydro-2H-[1,2′]bipyrazinyl] | 10 to 100
N#Cc1cccc(-c2cncc(N3CCN(c4ccncc4)CC3)n2)c1 [compound 167, 3-(4-Pyridin-4-yl-3,4,5,6-tetrahydro-2H-[1,2′]bipyrazinyl-6′-yl)-benzonitrile] | 1 to 10
OCC1CCCN1c1cncc(-c2cc3ccccc3o2)n1 (stereo not drawn) [compound 24, [1-(6-Benzofuran-2-yl-pyrazin-2-yl)-pyrrolidin-2-yl]-methanol] | 1 to 10
CSc1ccc(-c2cncc(N3CCN(c4ccccc4F)CC3)n2)cc1 [compound 116, 4-(2-Fluoro-phenyl)-6′-(4-methylsulfanyl-phenyl)-3,4,5,6-tetrahydro-2H-[1,2′]bipyrazinyl] | 1 to 10
Cc1ccc(N2CCN(c3cncc(-c4ccc(F)cc4)n3)CC2)cc1 [compound 136, 6′-(4-Fluoro-phenyl)-4-p-tolyl-3,4,5,6-tetrahydro-2H-[1,2′]bipyrazinyl] | 1 to 10
c1ccc(N2CCN(c3cncc(-c4ccc5ccccc5c4)n3)CC2)cc1 [compound 93, 6′-Naphthalen-2-yl-4-phenyl-3,4,5,6-tetrahydro-2H-[1,2′]bipyrazinyl] | 1 to 10
Fc1ccccc1N1CCN(c2cncc(-c3ccsc3)n2)CC1 [compound 122, 4-(2-Fluoro-phenyl)-6′-thiophen-3-yl-3,4,5,6-tetrahydro-2H-[1,2′]bipyrazinyl] | 1 to 10
CC(C)(C)c1ccc(-c2cncc(N3CCN(c4ccccc4)CC3)n2)cc1 [compound 95, 6′-(4-tert-Butyl-phenyl)-4-phenyl-3,4,5,6-tetrahydro-2H-[1,2′]bipyrazinyl] | 10 to 100
FC(F)(F)c1ccc(-c2cncc(N3CCN(c4ccccc4)CC3)n2)cc1 [compound 193, 4-Phenyl-6′-(4-trifluoromethyl-phenyl)-3,4,5,6-tetrahydro-2H-[1,2′]bipyrazinyl] | 1 to 10
COc1ccccc1N1CCN(c2cncc(-c3ccc4ccccc4c3)n2)CC1 [compound 86, 4-(2-Methoxy-phenyl)-6′-naphthalen-2-yl-3,4,5,6-tetrahydro-2H-[1,2′]bipyrazinyl] | 1 to 10
OCc1ccc(-c2cncc(N3CCN(c4cccc(Cl)c4)CC3)n2)cc1 [compound 83, {4-[4-(3-Chloro-phenyl)-3,4,5,6-tetrahydro-2H-[1,2′]bipyrazinyl-6′-yl]-phenyl}-methanol] | 1 to 10
CC(=O)c1cccc(-c2cncc(N3CCN(c4ccccc4F)CC3)n2)c1 [compound 115, 1-{3-[4-(2-Fluoro-phenyl)-3,4,5,6-tetrahydro-2H-[1,2′]bipyrazinyl-6′-yl]-phenyl}-ethanone] | 1 to 10
FC(F)(F)c1cc(-c2cncc(N3CCN(c4ccncc4)CC3)n2)cc(C(F)(F)F)c1 [compound 164, 6′-(3,5-Bis-trifluoromethyl-phenyl)-4-pyridin-4-yl-3,4,5,6-tetrahydro-2H-[1,2′]bipyrazinyl] | 10 to 100
